Laboratory results reported in patent publication US4629786A, “C-20- and C-23 modified macrolide derivatives” (Eli Lilly and Company, priority 1984, dated 1986).
≈ marks a conversion by molar mass, not a printed value. Like-named read-outs stand apart in the source and are kept apart here.

Assays:
[1] = system: Haemophilus influenzae C.L.; assay: MIC, standard agar-dilution assay, Haemophilus influenzae C.L.; type: cell-based
Experimental: (§1) Certain of the derivatives are active against some gram-negative bacteria, such as Pasteurella species. The MIC's in Table II were determined by standard agar-dilution assays.

[2] = system: Staphylococcus aureus X1.1; assay: MIC, standard agar-dilution assay, Staphylococcus aureus X1.1; type: cell-based
Experimental: as §1

[3] = system: Staphylococcus epidermidis EPI1; assay: MIC, standard agar-dilution assay, Staphylococcus epidermidis EPI1; type: cell-based
Experimental: as §1

Escherichia coli TEM = assay: MIC, standard agar-dilution assay, Escherichia coli TEM; type: cell-based
Experimental: as §1

[4] = system: Staphylococcus aureus X400; assay: MIC, standard agar-dilution assay, Staphylococcus aureus X400; type: cell-based
Experimental: as §1

[5] = system: Staphylococcus aureus S13E; assay: MIC, standard agar-dilution assay, Staphylococcus aureus S13E; type: cell-based
Experimental: as §1

[6] = system: Streptococcus pneumoniae Group D X66; assay: MIC, standard agar-dilution assay, Streptococcus pneumoniae Group D X66; type: cell-based
Experimental: as §1

Escherichia coli EC14 = assay: MIC, standard agar-dilution assay, Escherichia coli EC14; type: cell-based
Experimental: as §1

[7] = system: Haemophilus influenzae 76; assay: MIC, standard agar-dilution assay, Haemophilus influenzae 76; type: cell-based
Experimental: as §1

[8] = system: Staphylococcus aureus V41; assay: MIC, standard agar-dilution assay, Staphylococcus aureus V41; type: cell-based
Experimental: as §1

[9] = system: Klebsiella pneumoniae X26; assay: MIC, standard agar-dilution assay, Klebsiella pneumoniae X26; type: cell-based
Experimental: as §1

[10] = system: Streptococcus pneumoniae Group D X9960; assay: MIC, standard agar-dilution assay, Streptococcus pneumoniae Group D X9960; type: cell-based
Experimental: as §1

[11] = system: Staphylococcus epidermidis EPI2; assay: MIC, standard agar-dilution assay, Staphylococcus epidermidis EPI2; type: cell-based
Experimental: as §1

[12] = system: Streptococcus pyogenes C203; assay: protection of mice experimentally infected with S. pyogenes C203; type: in vivo; settings: mg/kg × 2, doses given 1 and 4 hours postinfection
Experimental: Some of the derivatives of this invention have shown in vivo antimicrobial activity against experimentally-induced infections in laboratory animals. When two doses of test compound were administered to mice experimentally infected with S. pyogenes C203, the activity observed was measured as an ED50 value [effective dose in mg/kg to protect 50% of the test animals: see Warren Wick, et al., J. Bacteriol. 81, 233-235 (1961)].
^a mg/kg × 2; doses given 1 and 4 hours postinfection

[13] = system: Streptococcus pyogenes C203; assay: MIC, standard agar-dilution assay, Streptococcus pyogenes C203; type: cell-based
Experimental: as §1

[14] = system: Klebsiella pneumoniae KAE; assay: MIC, standard agar-dilution assay, Klebsiella pneumoniae KAE; type: cell-based
Experimental: as §1

[15] = system: Streptococcus pneumoniae Park I; assay: MIC, standard agar-dilution assay, Streptococcus pneumoniae Park I; type: cell-based
Experimental: as §1

[16] = Haemophilus influenzae C.L., Ampicillin-sensitive strain, read-out: MIC
[17] = Staphylococcus aureus X400, Methicillin-resistant strain, read-out: MIC
[18] = Haemophilus influenzae 76, Ampicillin-resistant strain, read-out: MIC
[19] = Staphylococcus aureus V41, Penicillin-resistant strain, read-out: MIC
[20] = Streptococcus pneumoniae Group D X9960, read-out: MIC
[21] = Klebsiella pneumoniae KAE, read-out: MIC
[22] = Streptococcus pneumoniae Park I, read-out: MIC
[23] = Escherichia coli TEM, read-out: MIC

SMILES	MIC [1, 16] [µg/mL]	MIC ([2]; read-out: MIC) [µg/mL]	MIC ([3]; read-out: MIC) [µg/mL]	MIC (Escherichia coli TEM; Escherichia coli) [µg/mL]	MIC [4, 17] [µg/mL]	MIC [5] [µg/mL]	MIC (Escherichia coli EC14) [µg/mL]	MIC [7, 18] [µg/mL]	MIC ([9]; read-out: MIC) [µg/mL]	MIC [10, 20] [µg/mL]	MIC [11] [µg/mL]	ED50 ([12]; C203, Oral) [mg/kg]	ED50 ([12]; C203, sc, Subcutaneous) [mg/kg]	MIC [13] [µg/mL]	MIC [14, 21] [µg/mL]	MIC [15, 22] [µg/mL]	MIC ([13]; read-out: MIC) [µg/mL]	MIC [2] [µg/mL]	MIC ([6]; Streptococcus pneumoniae) [µg/mL]	MIC ([8]; Staphylococcus aureus, V41) [µg/mL]	also measured
CCC1OC(=O)CC(O)C(C)C(OC2OC(C)C(O)C(N(C)C)C2O)C(CCN2CCCCCC2)CC(C)C(=O)C=CC(C)=CC1C (stereo not shown) [Compound 23]	16 (≈ 24.1 µM)	4 (≈ 6.02 µM)	2 (≈ 3.01 µM)	8 (≈ 12 µM)	8 (≈ 12 µM)	4 (≈ 6.02 µM)	128 (≈ 193 µM)	16 (≈ 24.1 µM)	2 (≈ 3.01 µM)	16 (≈ 24.1 µM)	1 (≈ 1.5 µM)	> 100	> 10	0.5 (≈ 0.752 µM)	128 (≈ 193 µM)						MIC ([6]; Streptococcus pneumoniae Group D X66, read-out: MIC): 8 µg/mL (≈ 12 µM); MIC [8, 19]: 4 µg/mL (≈ 6.02 µM)
CCC1OC(=O)CC(O)C(C)C(OC2OC(C)C(O)C(N(C)C)C2O)C(CCN2CCOCC2)CC(C)C(=O)C=CC(C)=CC1CO (stereo not shown) [Compound 14, 20-DH-DO-20-Morpholino-OMT]	16 (≈ 23.9 µM)	4 (≈ 5.98 µM)	2 (≈ 2.99 µM)	64 (≈ 95.7 µM)	8 (≈ 12 µM)	4 (≈ 5.98 µM)	128 (≈ 191 µM)	4 (≈ 5.98 µM)		4 (≈ 5.98 µM)	1 (≈ 1.5 µM)	> 100	> 10			0.5 (≈ 0.748 µM)	1 (≈ 1.5 µM)				MIC [8, 19]: 4 µg/mL (≈ 5.98 µM); MIC [9]: 4 µg/mL (≈ 5.98 µM); pKa (Titration pKa; Titration pKa value (first)): 6.5; pKa (Titration pKa; Titration pKa value (second)): 8.4; MIC ([14]; Klebsiella pneumoniae KAE, symbol for not active at 128 mcg/ml, read-out: MIC): > 128 µg/mL
CCC1OC(=O)CC(O)C(C)C(OC2OC(C)C(O)C(N(C)C)C2O)C(CCN2CC3CCC(CC3)C2)CC(C)C(=O)C=CC(C)=CC1CO (stereo not shown) [Compound 13, 20-DH-DO-20-[3-Azabicyclo(3.2.2)-nonan-3-yl]-OMT]	4 (≈ 5.66 µM)				1 (≈ 1.41 µM)	1 (≈ 1.41 µM)		2 (≈ 2.83 µM)	2 (≈ 2.83 µM)	8 (≈ 11.3 µM)	0.25 (≈ 0.354 µM)	87	5.9				2 (≈ 2.83 µM)	1 (≈ 1.41 µM)	4 (≈ 5.66 µM)	1 (≈ 1.41 µM)	MIC [3]: 1 µg/mL (≈ 1.41 µM); pKa (physchem; Titration pKa value (first)): 7.7; pKa (physchem; Titration pKa value (second)): 9.3; MIC (Escherichia coli TEM; [23]): 8 µg/mL (≈ 11.3 µM); MIC ([15]; Streptococcus pneumoniae): 0.25 µg/mL (≈ 0.354 µM); MIC (Escherichia coli EC14; read-out: MIC): 32 µg/mL (≈ 45.3 µM); MIC ([14]; Klebsiella pneumoniae): 64 µg/mL (≈ 90.5 µM)
CCC1OC(=O)CC(O)C(C)C(OC2OC(C)C(O)C(N(C)C)C2O)C(CCN2CCCCCC2)CC(C)C(=O)C=CC(C)=CC1CO (stereo not shown) [Compound 5]			2 (≈ 2.94 µM)	16 (≈ 23.5 µM)	8 (≈ 11.7 µM)	4 (≈ 5.87 µM)	128 (≈ 188 µM)		4 (≈ 5.87 µM)		2 (≈ 2.94 µM)	> 100	7.8	0.5 (≈ 0.734 µM)	128 (≈ 188 µM)			4 (≈ 5.87 µM)	16 (≈ 23.5 µM)	4 (≈ 5.87 µM)	MIC ([1]; Haemophilus influenzae): 16 µg/mL (≈ 23.5 µM); MIC ([7]; Haemophilus influenzae, 76): 16 µg/mL (≈ 23.5 µM); MIC ([10]; Streptococcus pneumoniae): 16 µg/mL (≈ 23.5 µM)
CCC1OC(=O)CC(O)C(C)C(OC2OC(C)C(O)C(N(C)C)C2O)C(CCN2CCCCCCC2)CC(C)C(=O)C=CC(C)=CC1CN1CCCCCCC1 (stereo not shown) [Compound 15, 20-DH-DO-23-Deoxy-20,23-di(octahydroazocin-1-yl)-OMT]	0.5 (≈ 0.633 µM)	0.5 (≈ 0.633 µM)	0.5 (≈ 0.633 µM)			0.5 (≈ 0.633 µM)		1 (≈ 1.27 µM)	2 (≈ 2.53 µM)	1 (≈ 1.27 µM)	0.25 (≈ 0.316 µM)	> 50	> 10		8 (≈ 10.1 µM)	0.125 (≈ 0.158 µM)	0.125 (≈ 0.158 µM)		0.5 (≈ 0.633 µM)	0.5 (≈ 0.633 µM)	MIC (Escherichia coli TEM; [23]): 2 µg/mL (≈ 2.53 µM); MIC ([4]; Staphylococcus aureus, X400): 0.5 µg/mL (≈ 0.633 µM); MIC (Escherichia coli EC14; read-out: MIC): 4 µg/mL (≈ 5.06 µM); pKa (Titration pKa; Titration pKa value (first)): 6.9; pKa (Titration pKa; Titration pKa value (second)): 8.05; pKa (Titration pKa; Titration pKa value (third), third printed value): 8.9
CCC1OC(=O)CC(O)C(C)C(OC2OC(C)C(O)C(N(C)C)C2O)C(CCN2CCC(c3ccccc3)CC2)CC(C)C(=O)C=CC(C)=CC1CO (stereo not shown) [Compound 4, 20-DH-DO-20-(4-Phenylpiperidin-1-yl)-OMT]			1 (≈ 1.35 µM)	8 (≈ 10.8 µM)		2 (≈ 2.69 µM)				4 (≈ 5.38 µM)	0.5 (≈ 0.673 µM)	> 100	> 10	2 (≈ 2.69 µM)		0.25 (≈ 0.336 µM)		2 (≈ 2.69 µM)	2 (≈ 2.69 µM)	2 (≈ 2.69 µM)	MIC ([1]; Haemophilus influenzae): 8 µg/mL (≈ 10.8 µM); MIC ([4]; Staphylococcus aureus, X400): 2 µg/mL (≈ 2.69 µM); MIC (Escherichia coli EC14; read-out: MIC): 32 µg/mL (≈ 43.1 µM); MIC ([7]; Haemophilus influenzae, 76): 8 µg/mL (≈ 10.8 µM); MIC [9]: 2 µg/mL (≈ 2.69 µM); MIC ([14]; Klebsiella pneumoniae): 64 µg/mL (≈ 86.1 µM)
